Results as given in patent US20230049952A1, “METHODS AND COMPOUNDS FOR RESTORING MUTANT P53 FUNCTION” (PMV Pharmaceuticals, Inc., priority 2020, published 2023).
Read-outs that look alike come from different tables or passages of the source.

What was measured:
[1] = metabolic stability in cryopreserved hepatocytes; assay type: in vitro ADME, cynomolgus monkey; settings: Monkey cryopreserved hepatocytes
Procedure: (§1) Mixed-gender human cryopreserved hepatocytes, male Sprague-Dawley rat cryopreserved hepatocytes, male CD-1 mouse cryopreserved hepatocytes, male beagle dog cryopreserved hepatocytes, and male cynomolgus monkey cryopreserved hepatocytes were used for the study. The hepatocytes were thawed, pooled into Krebs Henseleit buffer (KHB, pH 7.4), and kept on ice prior to the experiments. […] Each experiment was performed in triplicate. The final DMSO content in the incubation mixture was ≤0.1%. […] Positive controls, testosterone (1 μM) and 7-hydroxycoumarin (7-HC) (100 μM), were performed in parallel to confirm the activity of the hepatocytes. […] Aliquots of testosterone were withdrawn (n=1) at 0, 5, 15, 30, 60, and 120 minutes. Aliquots of 7-HC were withdrawn (n=1) at 0 and 15 minutes. The reaction was immediately terminated by adding three volumes of ice-cold MeCN containing IS. The samples were then mixed and spun by centrifuge to precipitate proteins. An aliquot of the supernatant was then diluted with water. Calibration standards for the analysis of 7-HC metabolites were prepared in matched matrix. […] All samples were analyzed by LC-MS/MS. The peak area response ratio (PARR) vs. IS was compared to the PARR at time 0 to determine the percent remaining at each time point. Half-lives and clearance values were calculated using GraphPad software, fitting to a single-phase exponential decay equation.
(§2) Mixed-gender human cryopreserved hepatocytes, male Sprague-Dawley rat cryopreserved hepatocytes, male CD-1 mouse cryopreserved hepatocytes, male beagle dog cryopreserved hepatocytes, and male cynomolgus monkey cryopreserved hepatocytes were thawed and pooled into KHB buffer (pH 7.4) and kept on ice prior to the experiments. […] Each experiment was performed in triplicate. The final DMSO content in the incubation mixture was ≤0.1%.
(§3) Positive controls, testosterone (1 μM) and 7-hydroxycoumarin (7-HC) (100 μM), were performed in parallel to confirm the activity of the hepatocytes. […] Aliquots of testosterone were withdrawn (n=1) at 0, 5, 15, 30, 60, and 120 minutes. Aliquots of 7-HC were withdrawn (n=1) at 0 and 15 minutes. The reaction was immediately terminated by adding three volumes of ice-cold MeCN containing IS. The samples were then mixed and spun by centrifuge to precipitate proteins. An aliquot of the supernatant was then diluted with water. Calibration standards for the analysis of 7-HC metabolites were prepared in matched matrix. […] All samples were analyzed by LC-MS/MS. Analytical conditions are outlined below. The peak area response ratio (PARR) vs. IS was compared to the PARR at time 0 to determine the percent remaining at each time point. Half-lives and clearance values were calculated using GraphPad software, fitting to a single-phase exponential decay equation.

[2] = metabolic stability in cryopreserved hepatocytes; assay type: in vitro ADME, dog; settings: Dog cryopreserved hepatocytes
Procedure: Mixed-gender human cryopreserved hepatocytes, male Sprague-Dawley rat cryopreserved hepatocytes, male CD-1 mouse cryopreserved hepatocytes, male beagle dog cryopreserved hepatocytes, and male cynomolgus monkey cryopreserved hepatocytes were used for the study. The hepatocytes were thawed, pooled into Krebs Henseleit buffer (KHB, pH 7.4), and kept on ice prior to the experiments. […] Each experiment was performed in triplicate. The final DMSO content in the incubation mixture was ≤0.1%. […] Aliquots of testosterone were withdrawn (n=1) at 0, 5, 15, 30, 60, and 120 minutes. Aliquots of 7-HC were withdrawn (n=1) at 0 and 15 minutes. The reaction was immediately terminated by adding three volumes of ice-cold MeCN containing IS. The samples were then mixed and spun by centrifuge to precipitate proteins. An aliquot of the supernatant was then diluted with water. Calibration standards for the analysis of 7-HC metabolites were prepared in matched matrix. […] All samples were analyzed by LC-MS/MS. The peak area response ratio (PARR) vs. IS was compared to the PARR at time 0 to determine the percent remaining at each time point. Half-lives and clearance values were calculated using GraphPad software, fitting to a single-phase exponential decay equation.
as §2
Aliquots of testosterone were withdrawn (n=1) at 0, 5, 15, 30, 60, and 120 minutes. Aliquots of 7-HC were withdrawn (n=1) at 0 and 15 minutes. The reaction was immediately terminated by adding three volumes of ice-cold MeCN containing IS. The samples were then mixed and spun by centrifuge to precipitate proteins. An aliquot of the supernatant was then diluted with water. Calibration standards for the analysis of 7-HC metabolites were prepared in matched matrix. […] All samples were analyzed by LC-MS/MS. Analytical conditions are outlined below. The peak area response ratio (PARR) vs. IS was compared to the PARR at time 0 to determine the percent remaining at each time point. Half-lives and clearance values were calculated using GraphPad software, fitting to a single-phase exponential decay equation.

[3] = metabolic stability in cryopreserved hepatocytes; assay type: in vitro ADME, mouse; settings: Mouse cryopreserved hepatocytes
Procedure: as §1, §2, §3

[4] = metabolic stability in cryopreserved hepatocytes; assay type: in vitro ADME, rat; settings: Rat cryopreserved hepatocytes
Procedure: as §1, §2, §3

[5] = system: human hepatocytes; assay: metabolic stability in cryopreserved hepatocytes; assay type: in vitro ADME; settings: Human cryopreserved hepatocytes; positive control, 1 μM
Procedure: as §1, §2, §3

[6] = metabolic stability in cryopreserved hepatocytes; assay type: in vitro ADME, human; settings: both sexes, pH 7.4; Human cryopreserved hepatocytes; positive control 1 μM
Procedure: as §1, §2, §3

[7] = male, beagle, pH 7.4, positive control 1 μM
[8] = male, CD-1, pH 7.4, positive control 1 μM

SMILES: C[C@]12CC[C@H]3[C@@H](CCC4=CC(=O)CC[C@@]43C)[C@@H]1CC[C@@H]2O [testosterone]
- half-life ([1]; positive control 1 μM): 3.08 min
- CLint ([1]; positive control, 1 μM): 0.150 mL/min/10^6 cells
- half-life ([1]; positive control, 1 μM): 3.08 min
- hepatocyte CLint ([1]; male, pH 7.4, positive control 1 μM): 150 µL/min/1e6 cells
- CLint ([2]; positive control, 1 μM): 0.0672 mL/min/10^6 cells
- half-life [2, 7]: 6.88 min
- hepatocyte CLint [2, 7]: 67.2 µL/min/1e6 cells
- CLint ([3]; positive control, 1 μM): 0.181 mL/min/10^6 cells
- half-life [3, 8]: 2.55 min
- hepatocyte CLint [3, 8]: 181 µL/min/1e6 cells
- CLint ([4]; positive control, 1 μM): 0.405 mL/min/10^6 cells
- half-life ([4]; positive control, 1 μM): 1.14 min
- hepatocyte CLint ([4]; male, Sprague-Dawley, pH 7.4, positive control 1 μM): 405 µL/min/1e6 cells
- half-life ([4]; male, Sprague-Dawley, pH 7.4, positive control 1 μM, read-out: Half-life): 1.14 min
- CLint [5]: 0.108 mL/min/10^6 cells
- half-life [6]: 4.28 min
- hepatocyte CLint [6]: 108 µL/min/1e6 cells
